Reference: PubChem BioAssay AID1259407 (Chemical Carcinogenesis Research Information System (CCRIS), 2018)
Activity calls are given as the source filed them. No rule for the calls is given here.

Tested on: CCRIS mutagenicity, Ames/micronucleus/aberration tests
Test: CCRIS mutagenicity studies

SMILES: Nc1ccc(-c2ccc(N)c([N+](=O)[O-])c2)cc1[N+](=O)[O-]
- mutagenic call (Test System: AMES SALMONELLA TYPHIMURIUM, Strain/Indicator: TA98(1,8-DNP6), Metabolic Activation: NONE, Method: STANDARD PLATE): inactive; negative
- mutagenic call (Test System: AMES SALMONELLA TYPHIMURIUM, Strain/Indicator: TA98(1,8-DNP6), Metabolic Activation: S-9, Method: STANDARD PLATE): active; positive
- mutagenic call (Test System: AMES SALMONELLA TYPHIMURIUM, Strain/Indicator: TA98, Metabolic Activation: NONE, Method: STANDARD PLATE): active; positive
- mutagenic call (Test System: AMES SALMONELLA TYPHIMURIUM, Strain/Indicator: TA98, Metabolic Activation: S-9, Method: STANDARD PLATE): active; positive
- mutagenic call (Test System: AMES SALMONELLA TYPHIMURIUM, Strain/Indicator: TA100, Metabolic Activation: NONE, Method: STANDARD PLATE): inactive; negative
- mutagenic call (Test System: AMES SALMONELLA TYPHIMURIUM, Strain/Indicator: TA100, Metabolic Activation: S-9, Method: STANDARD PLATE): active; positive

SMILES: C=C1C[C@@]23CC[C@H]4[C@@](C)(CCC[C@@]4(C)C(=O)O[C@@H]4O[C@H](CO)[C@@H](O)[C@H](O)[C@H]4O)[C@@H]2CC[C@]1(O[C@@H]1O[C@H](CO)[C@@H](O)[C@H](O[C@@H]2O[C@H](CO)[C@@H](O)[C@H](O)[C@H]2O)[C@H]1O[C@@H]1O[C@H](CO)[C@@H](O)[C@H](O)[C@H]1O)C3
- mutagenic call (Test System: AMES SALMONELLA TYPHIMURIUM, Strain/Indicator: TM677, Metabolic Activation: RAT, LIVER, S-9, AROCLOR 1254, Method: PREINCUBATION): inactive; negative

SMILES: Cn1c(N)nc2ncc(-c3ccccc3)cc21
- mutagenic call (End Point: IN VITRO MICRONUCLEUS, Test System: CHL/IU CELLS, Metabolic Activation: RAT, LIVER, S-9, PHENOBARBITAL AND 5,6-BENZOFLAVONE): active; positive
- mutagenic call (End Point: IN VIVO MICRONUCLEUS, Test System: BONE MARROW POLYCHROMATIC ERYTHROCYTES, Species: MOUSE, Strain/Sex: BALB/C/MALE, Route: IP INJECTION): active; positive
- mutagenic call (End Point: IN VIVO MICRONUCLEUS, Test System: SPLENOCYTES, Species: MOUSE, Strain/Sex: BALB/C, Route: IO): active; positive only for 48.8 mg dose at either 2 or 16 days after treatment
- mutagenic call (Test System: AMES SALMONELLA TYPHIMURIUM, Strain/Indicator: TA98(1,8-DNP6), Metabolic Activation: RAT, LIVER, S-9, AROCLOR, Method: PREINCUBATION): active; positive
- mutagenic call (Test System: AMES SALMONELLA TYPHIMURIUM, Strain/Indicator: TA98(1,8-DNP6), Metabolic Activation: RAT, LIVER, S-9, Method: STANDARD PLATE): active; positive
- mutagenic call (Test System: AMES SALMONELLA TYPHIMURIUM, Strain/Indicator: TA98, Metabolic Activation: HUMAN, LIVER, MICROSOMES, Method: PREINCUBATION): active; positive
- mutagenic call (Test System: AMES SALMONELLA TYPHIMURIUM, Strain/Indicator: TA98, Metabolic Activation: MONKEY, LIVER, MICROSOMES, Method: PREINCUBATION): active; positive
- mutagenic call (Test System: AMES SALMONELLA TYPHIMURIUM, Strain/Indicator: TA98, Metabolic Activation: MOUSE, KIDNEY, S-9, PHENETHYL ISOTHIOCYANATE, Method: STANDARD PLATE): inactive; negative
- mutagenic call (Test System: AMES SALMONELLA TYPHIMURIUM, Strain/Indicator: TA98, Metabolic Activation: MOUSE, KIDNEY, S-9, Method: STANDARD PLATE): inactive; negative
- mutagenic call (Test System: AMES SALMONELLA TYPHIMURIUM, Strain/Indicator: TA98, Metabolic Activation: MOUSE, LIVER, S-9, PHENETHYL ISOTHIOCYANATE, Method: STANDARD PLATE): active; positive
- mutagenic call (Test System: AMES SALMONELLA TYPHIMURIUM, Strain/Indicator: TA98, Metabolic Activation: MOUSE, LIVER, S-9, Method: STANDARD PLATE): active; positive
- mutagenic call (Test System: AMES SALMONELLA TYPHIMURIUM, Strain/Indicator: TA98, Metabolic Activation: MOUSE, LUNG, S-9, PHENETHYL ISOTHIOCYANATE, Method: STANDARD PLATE): inactive; negative
- mutagenic call (Test System: AMES SALMONELLA TYPHIMURIUM, Strain/Indicator: TA98, Metabolic Activation: MOUSE, LUNG, S-9, Method: STANDARD PLATE): inactive; negative
- mutagenic call (Test System: AMES SALMONELLA TYPHIMURIUM, Strain/Indicator: TA98, Metabolic Activation: RAT, COLON, S-9, 3-METHYLCHOLANTHRENE, Method: STANDARD PLATE): inactive; negative
- mutagenic call (Test System: AMES SALMONELLA TYPHIMURIUM, Strain/Indicator: TA98, Metabolic Activation: RAT, LIVER, HEPATOCYTES, AROCLOR 1254, Method: PREINCUBATION): active; positive
- mutagenic call (Test System: AMES SALMONELLA TYPHIMURIUM, Strain/Indicator: TA98, Metabolic Activation: RAT, LIVER, HEPATOCYTES, Method: PREINCUBATION): active; positive
- mutagenic call (Test System: AMES SALMONELLA TYPHIMURIUM, Strain/Indicator: TA98, Metabolic Activation: RAT, LIVER, MICROSOMES, Method: PREINCUBATION): active; positive
- mutagenic call (Test System: AMES SALMONELLA TYPHIMURIUM, Strain/Indicator: TA98, Metabolic Activation: RAT, LIVER, S-9, AROCLOR 1254, Method: PREINCUBATION): active; positive
- mutagenic call (Test System: AMES SALMONELLA TYPHIMURIUM, Strain/Indicator: TA98, Metabolic Activation: RAT, LIVER, S-9, AROCLOR, Method: PREINCUBATION): active; positive
- mutagenic call (Test System: AMES SALMONELLA TYPHIMURIUM, Strain/Indicator: TA98, Metabolic Activation: RAT, LIVER, S-9, Method: STANDARD PLATE): active; positive
- mutagenic call (Test System: AMES SALMONELLA TYPHIMURIUM, Strain/Indicator: TA98, Metabolic Activation: S-9, Method: MICROSUSPENSION): active; positive
- mutagenic call (Test System: AMES SALMONELLA TYPHIMURIUM, Strain/Indicator: TA100, Metabolic Activation: RAT, LIVER, S-9, AROCLOR 1254, Method: PREINCUBATION): inactive; negative
- mutagenic call (Test System: AMES SALMONELLA TYPHIMURIUM, Strain/Indicator: TA1978, Metabolic Activation: S-9 (0.5 ML), Method: MICROSUSPENSION): active; positive
- mutagenic call (Test System: AMES SALMONELLA TYPHIMURIUM, Strain/Indicator: TA1978, Metabolic Activation: S-9 (2 MG/ML, 0.1 ML), Method: MICROSUSPENSION): inactive; negative
- mutagenic call (Test System: AMES SALMONELLA TYPHIMURIUM, Strain/Indicator: TA1978, Metabolic Activation: S-9 (2 MG/ML, 0.25 ML), Method: MICROSUSPENSION): active; positive
- mutagenic call (Test System: AMES SALMONELLA TYPHIMURIUM, Strain/Indicator: YG1019, Metabolic Activation: RAT LIVER S-9, AROCLOR, Method: PREINCUBATION): active; positive
- mutagenic call (Test System: AMES SALMONELLA TYPHIMURIUM, Strain/Indicator: YG1024, Metabolic Activation: RAT, COLON, S-9, 3-METHYLCHOLANTHRENE, Method: STANDARD PLATE): inactive; negative
- mutagenic call (Test System: AMES SALMONELLA TYPHIMURIUM, Strain/Indicator: YG1024, Metabolic Activation: RAT, LIVER, S-9, AROCLOR, Method: PREINCUBATION): active; positive
- mutagenic call (Test System: CHINESE HAMSTER V-79, Strain/Indicator: V-79/6-THIOGUANINE, Metabolic Activation: HAMSTER, PANCREAS DUCT, EPITHELIAL CELLS): active; positive
- mutagenic call (Test System: CHINESE HAMSTER V-79, Strain/Indicator: V-79/6-THIOGUANINE, Metabolic Activation: HUMAN, PANCREAS DUCT, EPITHELIAL CELLS): active; positive
- mutagenic call (Test System: CHINESE HAMSTER V-79, Strain/Indicator: XEMH1A2-MZ (HPRT)/6-THIOGUANINE, Metabolic Activation: NONE): active; positive
- mutagenic call (Test System: HUMAN COLON CANCER CELLS, Strain/Indicator: DLD-1 (HPRT)/6-THIOGUANINE, Metabolic Activation: MOUSE LIVER S-9, PHENOBARBITAL AND 5,6-BENZOFLAVONE, Method: SUSPENSION/PLATE): active; positive
- mutagenic call (Test System: HUMAN COLON CANCER CELLS, Strain/Indicator: HCT116 (HPRT)/6-THIOGUANINE, Metabolic Activation: MOUSE LIVER S-9, PHENOBARBITAL AND 5,6-BENZOFLAVONE, Method: SUSPENSION/PLATE): active; positive
- mutagenic call (Test System: UDS HUMAN HEPATOCYTES, Strain/Indicator: THY INCORP, Metabolic Activation: NONE, Method: AUTORADIOGRAPHY): active; positive
- mutagenic call (Test System: UDS MOUSE HEPATOCYTES, Strain/Indicator: THY INCORP, Metabolic Activation: NONE, Method: AUTORADIOGRAPHY): active; positive
